Test results as given in patent publication US7816371B2, “Bicycloheteroaryl compounds as P2X7 modulators and uses thereof” (Renovis, Inc., priority 2006, dated 2010).

Target: T1, P2X7 receptor (Homo sapiens, UniProt Q99572)
T1 construct: host or cells: THP-1 cells differentiated with LPS and IFN-γ
T1 sequence (Q99572 1-595): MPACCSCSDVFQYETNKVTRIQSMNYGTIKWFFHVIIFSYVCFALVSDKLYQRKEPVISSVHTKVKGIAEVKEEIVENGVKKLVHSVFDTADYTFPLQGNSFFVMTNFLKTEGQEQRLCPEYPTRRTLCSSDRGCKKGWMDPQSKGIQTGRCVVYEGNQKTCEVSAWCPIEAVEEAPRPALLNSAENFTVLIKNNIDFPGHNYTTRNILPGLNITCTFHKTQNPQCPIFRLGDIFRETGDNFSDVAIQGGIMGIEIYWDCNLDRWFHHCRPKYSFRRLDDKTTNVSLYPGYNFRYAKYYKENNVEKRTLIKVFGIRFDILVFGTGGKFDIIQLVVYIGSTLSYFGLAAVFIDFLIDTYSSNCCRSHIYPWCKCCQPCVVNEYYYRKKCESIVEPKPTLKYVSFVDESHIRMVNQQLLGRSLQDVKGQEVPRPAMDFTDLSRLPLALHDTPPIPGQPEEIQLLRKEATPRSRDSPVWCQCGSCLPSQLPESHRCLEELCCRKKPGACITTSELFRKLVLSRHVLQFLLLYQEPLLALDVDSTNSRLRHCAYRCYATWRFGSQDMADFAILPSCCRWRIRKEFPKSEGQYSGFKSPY
Assay: IL-1β release assay in differentiated THP-1 cells stimulated with BzATP (Example 9); % inhibition and IC50
Type: cell-based
Details: 0.3 μM compound; differentiated THP-1 cells, BzATP 250 uM; read-out: IL-1β % Inhib. @ 0.3 μM
Experimental: The cells are then pretreated for 30 minutes with the compound of interest at the appropriate concentration in RPMI media containing 100 IU/mL penicillin, 100 ug/mL streptomycin. […] 30 uL of cell supernatant is then collected and IL-1β levels determined via ELISA (R&D systems Cat. # HSLB50) according to manufacturer's recommendations using the Tecan Safire plate reader. Background adjusted IL-1β levels of drug treated and non-treated cells are used to calculate the percent inhibition.
The compounds set forth in Table 1 were tested for activity in a cellular model as described herein.

C[C@H](C(N)=O)n1ccc2c(NC(=O)Cc3ccc(C(F)(F)F)cc3)c(Cl)ccc2c1=O [Compound 316, (R)-2-{6-Chloro-1-oxo-5-[2-(4-trifluoromethyl-phenyl)-acetylamino]-1H-isoquinolin-2-yl}-propionamide] was tested. Which inhibition at 0.3 µM did it give?
Its inhibition at 0.3 µM is 51 to 75%.

Same assay, conditions: THP-1 cells differentiated with LPS and IFN-γ, 30 min pretreatment, BzATP 250 uM, IL-1β by ELISA

Which IC50 does the source give for C[C@H](C(N)=O)n1ccc2c(NC(=O)Cc3ccc(C(F)(F)F)cc3)c(Cl)ccc2c1=O [Compound 316, (R)-2-{6-Chloro-1-oxo-5-[2-(4-trifluoromethyl-phenyl)-acetylamino]-1H-isoquinolin-2-yl}-propionamide] here?
Its IC50 is 2.29 nM.

Which IC50 does the source give for C[C@@H](C(=O)Nc1cccc2c(=O)n([C@@H](C)CO)ccc12)c1ccc(Cl)c(Cl)c1 [Compound 317] here?
Its IC50 is 93.7 nM.

With C[C@@H](CO)n1ccc2c(NC(=O)Cc3ccc(C(F)(F)F)cc3)cccc2c1=O [Compound 318] as the compound, how does the IC50 read?
Its IC50 is 132 nM.

C[C@H](CO)n1ccc2c(NC(=O)Cc3ccc(C(F)(F)F)cc3)cccc2c1=O [Compound 319] was tested. Which IC50 did it give?
Its IC50 is 25.1 nM.

How did the IC50 turn out when C[C@H](CO)n1ccc2c(NC(=O)[C@H](C)c3ccc(Cl)c(Cl)c3)cccc2c1=O [Compound 320] was run?
Its IC50 is 9.54 nM.

Which IC50 does the source give for C[C@H](C(=O)Nc1cccc2c(=O)n([C@H](C)CO)ccc12)c1ccc(Cl)c(Cl)c1 [Compound 321] here?
Its IC50 is 13.4 nM.

Which IC50 does the source give for C[C@H](C(=O)Nc1cccc2c(=O)n([C@H](C)C(=O)O)ccc12)c1ccc(Cl)cc1 [Compound 322, (R)-2-{5-[(S)-2-(4-Chloro-phenyl)-propionylamino]-1-oxo-1H-isoquinolin-2-yl}-propionic acid] here?
Its IC50 is 572 nM.

How did the IC50 turn out when CC(C)[C@H](C(=O)O)n1ccc2c(NC(=O)[C@@H](C)c3ccc(Cl)cc3)cccc2c1=O [Compound 323, (R)-2-{5-[(S)-2-(4-Chloro-phenyl)-propionylamino]-1-oxo-1H-isoquinolin-2-yl}-3-methyl-butyric acid] was run?
Its IC50 is 320 nM.

With C[C@H](CO)n1ccc2c(NC(=O)Cc3cccc(C(F)(F)F)c3F)cccc2c1=O [Compound 324] as the compound, how does the IC50 read?
The IC50 was 22.1 nM.

Which IC50 does the source give for C[C@@H](CO)n1ccc2c(NC(=O)Cc3cccc(C(F)(F)F)c3F)cccc2c1=O [Compound 325] here?
Its IC50 is 84.6 nM.

How did the IC50 turn out when C[C@H](C(=O)Nc1cccc2c(=O)n([C@@H](C)CO)ccc12)c1ccc(Cl)c(Cl)c1 [Compound 326] was run?
Its IC50 is 122 nM.

For C[C@H](CO)n1ccc2c(NC(=O)Cc3ccc(Cl)cc3F)cccc2c1=O [Compound 327], which IC50 is on record?
The IC50 was 39.4 nM.

With C[C@@H](CO)n1ccc2c(NC(=O)Cc3ccc(Cl)cc3F)cccc2c1=O [Compound 328] as the compound, how does the IC50 read?
Its IC50 is 202 nM.

How did the IC50 turn out when C[C@H](CO)n1ccc2c(NC(=O)Cc3ccc(F)c(Cl)c3)cccc2c1=O [Compound 329] was run?
Its IC50 is 206 nM.

With C[C@H](CO)n1ccc2c(NC(=O)Cc3ccc(Cl)c(F)c3)cccc2c1=O [Compound 330, 2-(4-Chloro-3-fluorophenyl)-N-[2-((R)-2-hydroxy-1-methyl-ethyl)-1-oxo-1,2-dihydro-isoquinolin-5-yl]-acetamide] as the compound, how does the IC50 read?
The IC50 was 13.3 nM.

C[C@@H](CO)n1ccc2c(NC(=O)Cc3ccc(F)c(Cl)c3)cccc2c1=O [Compound 331] was tested. Which IC50 did it give?
Its IC50 is 163 nM.

For C[C@H](CO)n1ccc2c(NC(=O)Cc3ccc(Cl)c(Cl)c3)cccc2c1=O [Compound 333, 2-(3,4-Dichloro-phenyl)-N-[2-((R)-2-hydroxy-1-methyl-ethyl)-1-oxo-1,2-dihydro-isoquinolin-5-yl]-acetamide], which IC50 is on record?
The IC50 was 1.01 nM.

How did the IC50 turn out when C[C@@H](CO)n1ccc2c(NC(=O)Cc3ccc(Cl)c(F)c3)cccc2c1=O [Compound 334] was run?
Its IC50 is 202 nM.

With C[C@H](CO)n1ccc2c(NC(=O)Cc3ccc(C(F)(F)F)c(F)c3)cccc2c1=O [Compound 335] as the compound, how does the IC50 read?
Its IC50 is 9.31 nM.

With C[C@@H](CO)n1ccc2c(NC(=O)Cc3ccc(C(F)(F)F)c(F)c3)cccc2c1=O [Compound 336] as the compound, how does the IC50 read?
Its IC50 is 49.8 nM.

Which IC50 does the source give for CC(C(=O)Nc1cccc2c(=O)n([C@H](C)C(N)=O)ccc12)c1cccc(C(F)(F)F)c1F (stereo partly drawn) [Compound 337] here?
Its IC50 is 9.15 nM.

How did the IC50 turn out when C[C@@H](CO)n1ccc2c(NC(=O)Cc3ccc(F)c(C(F)(F)F)c3)cccc2c1=O [Compound 338] was run?
Its IC50 is 48.1 nM.

With C[C@H](CO)n1ccc2c(NC(=O)Cc3ccc(F)c(C(F)(F)F)c3)cccc2c1=O [Compound 339] as the compound, how does the IC50 read?
Its IC50 is 10.5 nM.

With O=C(Cc1ccc(F)c(Cl)c1)Nc1cccc2c(=O)n(CCO)ccc12 [Compound 341] as the compound, how does the IC50 read?
Its IC50 is 52.6 nM.

With C[C@H](C(N)=O)n1ccc2c(NC(=O)Cc3ccc(Cl)cc3F)c(Cl)ccc2c1=O [Compound 343] as the compound, how does the IC50 read?
The IC50 was 395 nM.

How did the IC50 turn out when C[C@@H](C(N)=O)n1ccc2c(NC(=O)Cc3ccc(F)c(Cl)c3)cccc2c1=O [Compound 346] was run?
Its IC50 is 66.9 nM.

How did the IC50 turn out when C[C@@H](C(N)=O)n1ccc2c(NC(=O)Cc3ccc(C(F)(F)F)c(F)c3)cccc2c1=O [Compound 347] was run?
Its IC50 is 31.2 nM.

Which IC50 does the source give for C[C@@H](C(N)=O)n1ccc2c(NC(=O)Cc3ccc(F)c(C(F)(F)F)c3)cccc2c1=O [Compound 348] here?
The IC50 was 20.8 nM.

With C[C@@H](C(N)=O)n1ccc2c(NC(=O)Cc3cccc(C(F)(F)F)c3F)cccc2c1=O [Compound 349] as the compound, how does the IC50 read?
Its IC50 is 48.9 nM.

For C[C@@H](C(N)=O)n1ccc2c(NC(=O)Cc3ccc(Cl)cc3F)cccc2c1=O [Compound 350], which IC50 is on record?
Its IC50 is 13.6 nM.

How did the IC50 turn out when C[C@@H](C(N)=O)n1ccc2c(NC(=O)Cc3ccc(C(F)(F)F)cc3)cccc2c1=O [Compound 351] was run?
The IC50 was 35.8 nM.

C[C@@H](C(N)=O)n1ccc2c(NC(=O)Cc3ccc(Cl)c(F)c3)cccc2c1=O [Compound 352] was tested. Which IC50 did it give?
The IC50 was 32.7 nM.

How did the IC50 turn out when C[C@@H](C(N)=O)n1ccc2c(NC(=O)Cc3ccc(Cl)c(C(F)(F)F)c3)cccc2c1=O [Compound 353] was run?
Its IC50 is 29.6 nM.

With O=C(Cc1ccc(Cl)c(F)c1)Nc1cccc2c(=O)n(CCO)ccc12 [Compound 354] as the compound, how does the IC50 read?
Its IC50 is 84.2 nM.

CC(C(=O)Nc1cccc2c(=O)n([C@@H](C)C(N)=O)ccc12)c1cccc(C(F)(F)F)c1F (stereo partly drawn) [Compound 355] was tested. Which IC50 did it give?
Its IC50 is 36.9 nM.

With CC(C(=O)Nc1cccc2c(=O)n([C@@H](C)C(N)=O)ccc12)c1ccc(Cl)c(C(F)(F)F)c1 (stereo partly drawn) [Compound 356] as the compound, how does the IC50 read?
The IC50 was 15.5 nM.

With O=C(Cc1ccc(C(F)(F)F)c(F)c1)Nc1cccc2c(=O)n(CCO)ccc12 [Compound 357] as the compound, how does the IC50 read?
Its IC50 is 14.6 nM.

Which IC50 does the source give for C[C@H](CO)n1ccc2c(NC(=O)Cc3ccc(C(F)(F)F)cc3F)cccc2c1=O [Compound 359] here?
Its IC50 is 43.1 nM.

For C[C@H](CO)n1ccc2c(NC(=O)Cc3ccc(C(F)(F)F)cc3C(F)(F)F)cccc2c1=O [Compound 361], which IC50 is on record?
The IC50 was 14.3 nM.

Which IC50 does the source give for C[C@H](CO)n1ccc2c(NC(=O)Cc3ccc(Cl)c(C(F)(F)F)c3)cccc2c1=O [Compound 362] here?
The IC50 was 1.14 nM.

With CC(C)(CO)n1ccc2c(NC(=O)Cc3ccc(C(F)(F)F)cc3)cccc2c1=O [Compound 363] as the compound, how does the IC50 read?
Its IC50 is 167 nM.

Which IC50 does the source give for CC(C)(CO)n1ccc2c(NC(=O)Cc3ccc(C(F)(F)F)c(F)c3)cccc2c1=O [Compound 365] here?
Its IC50 is 41.1 nM.

How did the IC50 turn out when CC(C)(CO)n1ccc2c(NC(=O)Cc3ccc(C(F)(F)F)cc3C(F)(F)F)cccc2c1=O [Compound 366] was run?
Its IC50 is 789 nM.

How did the IC50 turn out when CC(C)(CO)n1ccc2c(NC(=O)Cc3ccc(F)c(C(F)(F)F)c3)cccc2c1=O [Compound 367] was run?
The IC50 was 106 nM.

For CC(C)(CO)n1ccc2c(NC(=O)Cc3cccc(C(F)(F)F)c3F)cccc2c1=O [Compound 368], which IC50 is on record?
Its IC50 is 60.3 nM.

How did the IC50 turn out when CC(C)(CO)n1ccc2c(NC(=O)Cc3ccc(Cl)c(C(F)(F)F)c3)cccc2c1=O [Compound 369, 2-(4-Chloro-3-trifluoromethyl-phenyl)-N-[2-(2-hydroxy-1,1-dimethyl-ethyl)-1-oxo-1,2-dihydro-isoquinolin-5-yl]-acetamide] was run?
The IC50 was 15 nM.

Which IC50 does the source give for CC(C)(CO)n1ccc2c(NC(=O)Cc3ccc(C(F)(F)F)cc3F)cccc2c1=O [Compound 370] here?
Its IC50 is 134 nM.

For CC(C)(CO)n1ccc2c(NC(=O)Cc3ccc(Cl)c(Cl)c3)cccc2c1=O [Compound 371], which IC50 is on record?
Its IC50 is 157 nM.

How did the IC50 turn out when CC(C)(CO)n1ccc2c(NC(=O)Cc3ccc(F)c(Cl)c3)cccc2c1=O [Compound 372] was run?
The IC50 was 421 nM.

Which IC50 does the source give for CC(C)(CO)n1ccc2c(NC(=O)Cc3ccc(Cl)c(F)c3)cccc2c1=O [Compound 373] here?
Its IC50 is 258 nM.

CC(C)(CO)n1ccc2c(NC(=O)Cc3ccc(Cl)cc3F)cccc2c1=O [Compound 374] was tested. Which IC50 did it give?
Its IC50 is 175 nM.

With C[C@H](CO)n1ccc2c(NC(=O)Cc3ccc(C(F)(F)F)c(F)c3)c(Cl)ccc2c1=O [Compound 375, N-[6-Chloro-2-((R)-2-hydroxy-1-methyl-ethyl)-1-oxo-1,2-dihydro-isoquinolin-5-yl]-2-(3-fluoro-4-trifluoromethyl-phenyl)-acetamide] as the compound, how does the IC50 read?
The IC50 was 4.65 nM.

How did the IC50 turn out when C[C@H](CO)n1ccc2c(NC(=O)Cc3ccc(F)c(C(F)(F)F)c3)c(Cl)ccc2c1=O [Compound 377, N-[6-Chloro-2-((R)-2-hydroxy-1-methyl-ethyl)-1-oxo-1,2-dihydro-isoquinolin-5-yl]-2-(4-fluoro-3-trifluoromethyl-phenyl)-acetamide] was run?
Its IC50 is 0.38 nM.

How did the IC50 turn out when C[C@H](C(N)=O)n1ccc2c(NC(=O)Cc3ccc(F)c(F)c3F)cccc2c1=O [Compound 379] was run?
The IC50 was 30.4 nM.

With C[C@H](C(N)=O)n1ccc2c(NC(=O)Cc3ccc(C(F)(F)F)cc3C(F)(F)F)cccc2c1=O [Compound 380] as the compound, how does the IC50 read?
Its IC50 is 64.3 nM.

With C[C@H](C(N)=O)n1ccc2c(NC(=O)Cc3cc(F)c(F)c(F)c3)cccc2c1=O [Compound 381] as the compound, how does the IC50 read?
The IC50 was 32.4 nM.
